# Measurements: US20190119200A1, “TERTIARY AMIDES AND METHOD OF USE” (AbbVie Inc., priority 2016, published 2019)
# What was measured:
# LPAR1 = target: T1, LPAR1 (Homo sapiens, UniProt Q92633); experiment: LPAR1 FLIPR Assay; assay type: cell-based; settings: U2OS cells stably expressing LPAR1, LPA (EC80), Calcium 6 FLIPR dye; for Emax: read-out: Maximum Inhibition
# T1 construct: host or cells: U2OS
# Procedure, shortened: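 U2OS cells stably expressing LPAR1 were loaded with Calcium 6 dye for 2 h at 37° C, preincubated 3 min with compound (11-point 3-fold series), then stimulated with LPA at EC80. Fluorescence at 515-575 nm was recorded by FLIPR; IC50 came from four-parameter logistic fits of ratio data.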
# [1] = test system: LPA-induced MCP-1 in NRK-49F cells; experiment: LPA-induced MCP-1 AlphaLISA assay; assay type: cell-based; settings: Rattus norvegicus, final LPA 10 μM, 7 hours; for Emax: read-out: Maximum Inhibition
# Description: Two days prior to the experiment, NRK-49F cells were plated at 8,000 cells/well in 100 μL of growth medium [DMEM (Life Technologies #11995) with 5% dFBS (Life Technologies #30067-334), 100 units/mL penicillin/streptomycin (Life Technologies #15140122)] in 96-well clear flat bottom polystyrene TC-treated microplate (Corning® #3599) and incubated in humidified 10% CO2 at 37° C. One day prior to the experiment, the cell medium was removed and serum free medium [100 μL/well, DMEM (Life Technologies #11995) with 0.1% fatty acid free BSA (Sigma #A6003)] was added with continued incubation in humidified 10% CO2 at 37° C. overnight. On the day of the assay, test compounds were 1:3 serially diluted in 100% DMSO using a BioTek Precision™ system and then transferred (equivalent volume of DMSO as controls) to a plate in serum free medium [DMEM with 0.1% fatty acid free BSA] using a Biomek® NX workstation to give a 2× compound solution. The cell culture medium was removed, and cells were pre-treated with 50 μL/well of 2× compound in serum free medium [DMEM with 0.1% fatty acid free BSA] at 37° C. for 30 minutes. Following the incubation, 50 μL/well of 20 μM LPA diluted in serum free medium [DMEM with 0.1% fatty acid free BSA] was added to the cells. Serum free medium [DMEM with 0.1% fatty acid free BSA] was used as substitution for low control wells while 20 µM LPA was added to high control wells and test compound wells. 200 µM LPA was added to EC100 wells. Final DMSO concentration was 1% in every well. Final LPA concentration in test compound wells and high control wells was 10 μM. […] After the incubation, cell supernatant was transferred to a new 96 well polypropylene plate (Greiner #651201) where it was sealed and stored at −80° C. On the detection day, 5 μL of thawed cell supernatant was transferred to a new white opaque 384-well microplate (Perkin Elmer #6007299). An AlphaLISA® mouse/rat CCL2/MCP1, Immunoassay Research kit (PerkinElmer #AL509F) was used. A mixture (20 μL/well) of AlphaLISA® Anti-Analyte Accept beads (10 μg/mL final) and Biotinylated Antibody Anti-Analyte (freshly prepared, 1 nM final) was added. The mixture in the wells was mixed and then incubated at room temperature for 1 hour. Then SA-Donor beads (25 μL/well, 40 μg/mL final) were added giving a final volume of 50 μL/well. The contents of the wells were mixed and then incubated at room temperature for 0.5 hour (protect from light). The plate was read using the default Envision™ Alpha protocol (PerkinElmer). IC50 values were calculated from curve fits of the ratio data using a four-parameter logistic Hill equation (Assay Explorer 3.3 Client).
# T1 sequence (Q92633 whole entry): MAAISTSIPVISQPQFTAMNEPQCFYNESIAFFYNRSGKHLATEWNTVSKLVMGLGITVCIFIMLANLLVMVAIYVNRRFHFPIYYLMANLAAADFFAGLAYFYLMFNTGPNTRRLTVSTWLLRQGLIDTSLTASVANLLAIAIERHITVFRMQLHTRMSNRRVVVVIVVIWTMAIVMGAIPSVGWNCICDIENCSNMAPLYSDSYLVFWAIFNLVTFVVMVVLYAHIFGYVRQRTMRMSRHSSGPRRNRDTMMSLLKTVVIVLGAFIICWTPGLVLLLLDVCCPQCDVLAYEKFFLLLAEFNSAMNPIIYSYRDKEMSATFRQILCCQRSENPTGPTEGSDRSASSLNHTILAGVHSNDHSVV
SMILES,IC50 (LPAR1) [µM],Emax (LPAR1) [%],IC50 [1] [µM],Emax [1] [%]
"COc1cc(C(=O)N(CCCc2cc(F)cc(F)c2)CCSCC(=O)O)cc(OC)c1C [Example 125, [(2-{[3-(3,5-difluorophenyl)propyl](3,5-dimethoxy-4-methylbenzoyl)amino}ethyl)sulfanyl]acetic Acid]",> 10,32,> 10,53
"CCOc1cc(OCC)cc(C(=O)N(CCCCC(=O)O)CCCc2ccccc2)c1 [Example 18, 5-[(3,5-diethoxybenzoyl)(3-phenylpropyl)amino]pentanoic Acid]",0.05,89,1.63,86
"CCS(=O)(=O)NC(=O)CCCCN(CCCc1ccccc1)C(=O)c1cc(OC)c(C)c(OC)c1 [Example 123, N-{5-[(ethanesulfonyl)amino]-5-oxopentyl}-3,5-dimethoxy-4-methyl-N-(3-phenylpropyl)benzamide]",0.046,94,0.793,85
"COc1cc(C(=O)N(CCCc2ccccc2)C[C@H](O)CCC(=O)O)cc(OC)c1C [Example 120, (4R)-5-[(3,5-dimethoxy-4-methylbenzoyl)(3-phenylpropyl)amino]-4-hydroxypentanoic Acid]",0.039,81,5.24,65
"CCCCC(C)(CCCN(CCCc1ccccc1)C(=O)c1cc(OC)c(C)c(OC)c1)C(=O)O (stereo not drawn) [Example 97, 2-{3-[(3,5-dimethoxy-4-methylbenzoyl)(3-phenylpropyl)amino]propyl}-2-methylhexanoic Acid]",0.116,97,0.036,94
"COc1cc(C(=O)N(CCCCC(=O)O)Cc2ccccc2)cc(OC)c1C [Example 94, 5-[benzyl(3,5-dimethoxy-4-methylbenzoyl)amino]pentanoic Acid]",> 30,2,> 10,13
"COc1ccc(C(=O)N(CCCCC(=O)O)CCCc2ccccc2)cc1 [Example 84, 5-[(4-methoxybenzoyl)(3-phenylpropyl)amino]pentanoic Acid]",> 30,7,> 10,31
"COc1cc(C(=O)N(CCCCC(=O)O)CCCc2cc(F)cc(F)c2)cc(OC)c1C [Example 126, 5-{[3-(3,5-difluorophenyl)propyl](3,5-dimethoxy-4-methylbenzoyl)amino}pentanoic Acid]",0.119,74,3.89,75
"COc1cc(C(=O)N(CCCOC(=O)NS(C)(=O)=O)CCCc2ccccc2)cc(OC)c1C [Example 186, 3-[(3,5-dimethoxy-4-methylbenzoyl)(3-phenylpropyl)amino]propyl (methanesulfonyl)carbamate]",0.065,83,7.05,54
"COc1cc(C(=O)N(CCCc2ccccc2)CCCC(O)C(=O)O)cc(OC)c1C1CC1 (stereo not drawn) [Example 165, 5-[(4-cyclopropyl-3,5-dimethoxybenzoyl)(3-phenylpropyl)amino]-2-hydroxypentanoic Acid]",0.045,83,2.73,70
"COc1cc(OC)cc(C(=O)N(CCCCC(=O)O)CCCc2ccccc2Cl)c1 [Example 135, 5-{[3-(2-chlorophenyl)propyl](3,5-dimethoxybenzoyl)amino}pentanoic Acid]",> 10,32,> 10,25
"COc1cc(C(=O)N(CCCc2ccccc2)CC(=O)N[C@@H](Cc2cccs2)C(=O)O)cc(OC)c1C [Example 47, N-(3,5-dimethoxy-4-methylbenzoyl)-N-(3-phenylpropyl)glycyl-3-thiophen-2-ylalanine]",0.079,88,4.7,58
"COc1cc(C(=O)N(CCCc2ccccc2)CCCC(Cc2ccccc2)C(=O)O)cc(OC)c1C (stereo not drawn) [Example 52, 2-benzyl-5-[(3,5-dimethoxy-4-methylbenzoyl)(3-phenylpropyl)amino]pentanoic Acid]",0.124,87,1.01,77
"COc1ccc(C2(C(=O)N(CCCCC(=O)O)CCCc3cccc(F)c3)CC2)cc1 [Example 92, 5-{[3-(3-fluorophenyl)propyl][1-(4-methoxyphenyl)cyclopropane-1-carbonyl]amino}pentanoic Acid]",0.06,90,4.49,72
"COc1cc(OC)cc(C(=O)N(CCCCC(=O)O)CCCc2cc(F)cc(F)c2)c1 [Example 136, 5-{[3-(3,5-difluorophenyl)propyl](3,5-dimethoxybenzoyl)amino}pentanoic Acid]",> 10,15,> 10,47
"COc1cc(C(=O)N(CCCOC(=O)NS(=O)(=O)c2ccc(F)cc2)CCCc2ccccc2)cc(OC)c1C [Example 145, 3-[(3,5-dimethoxy-4-methylbenzoyl)(3-phenylpropyl)amino]propyl (4-fluorobenzene-1-sulfonyl)carbamate]",0.437,51,3.96,59
"COc1cc(C(=O)N(CCCc2ccccc2)CCC(=O)O)cc(OC)c1C [Example 67, N-(3,5-dimethoxy-4-methylbenzoyl)-N-(3-phenylpropyl)-beta-alanine]",> 30,46,3.71,57
"COc1cc(C(=O)N(CCCc2ccccc2)CCCC(C)C(=O)NS(C)(=O)=O)cc(OC)c1C (stereo not drawn) [Example 161, N-{5-[(methanesulfonyl)amino]-4-methyl-5-oxopentyl}-3,5-dimethoxy-4-methyl-N-(3-phenylpropyl)benzamide]",0.099,99,0.079,88
"COc1ccc(C(=O)N(CCCCC(=O)O)CCCc2ccccc2)cc1OC [Example 83, 5-[(3,4-dimethoxybenzoyl)(3-phenylpropyl)amino]pentanoic Acid]",> 30,25,> 10,11
"CC(=O)Nc1cc(C(=O)N(CCCCC(=O)O)CCCc2ccccc2)ccn1 [Example 171, 5-[(2-acetamidopyridine-4-carbonyl)(3-phenylpropyl)amino]pentanoic Acid]",0.933,70,> 2.18,30
"CCOc1cc(OCC)cc(C(=O)N(CCCCC(=O)O)CCCc2ccc(C)o2)c1 [Example 176, 5-{(3,5-diethoxybenzoyl)[3-(5-methylfuran-2-yl)propyl]amino}pentanoic Acid]",0.084,64,> 8.19,53
"CCCCC(CCCN(CCCc1ccccc1)C(=O)c1cc(OC)c(C)c(OC)c1)C(=O)O (stereo not drawn) [Example 93, 2-{3-[(3,5-dimethoxy-4-methylbenzoyl)(3-phenylpropyl)amino]propyl}hexanoic Acid]",0.043,96,0.819,84
"COc1cc(C(=O)N(CCCCC(=O)NS(=O)(=O)c2ccccc2)CCCc2ccccc2)cc(OC)c1C [Example 144, N-{5-[(benzenesulfonyl)amino]-5-oxopentyl}-3,5-dimethoxy-4-methyl-N-(3-phenylpropyl)benzamide]",0.099,92,1.09,96
"COc1ccc(C(C)(C)C(=O)N(CCCCC(=O)O)CCCc2ccccc2)cc1 [Example 85, 5-{[2-(4-methoxyphenyl)-2-methylpropanoyl](3-phenylpropyl)amino}pentanoic Acid]",> 30,14,> 10,12
